Data reported in ChEMBL document CHEMBL1147528, “(S)-N-[1-(4-cyclopropylmethyl-3,4-dihydro-2H-benzo[1,4]oxazin-6-yl)-ethyl]-3-(2-fluoro-phenyl)-acrylamide is a potent and efficacious KCNQ2 opener which inhibits induced hyperexcitability of rat hippocampal neurons” (Bioorg Med Chem Lett, 2004).

Legend:
[1] = target: Potassium voltage-gated channel subfamily KQT member 2 (Mus musculus) (UniProt Q9Z351); assay: Efficacy for mKCNQ2 expressed in HEK293 cells relative to reference compound; assay type: functional, cell-based
[2] = target: Potassium voltage-gated channel subfamily KQT member 2 (Mus musculus, UniProt Q9Z351); assay: Whole-cell patch-clamp on recombinant mouse KCNQ2 channels expressed in HEK 293 cells at -40 mV; assay type: functional, cell-based, HEK293
Potassium voltage-gated channel subfamily KQT member 2, sequence (Q9Z351 whole entry): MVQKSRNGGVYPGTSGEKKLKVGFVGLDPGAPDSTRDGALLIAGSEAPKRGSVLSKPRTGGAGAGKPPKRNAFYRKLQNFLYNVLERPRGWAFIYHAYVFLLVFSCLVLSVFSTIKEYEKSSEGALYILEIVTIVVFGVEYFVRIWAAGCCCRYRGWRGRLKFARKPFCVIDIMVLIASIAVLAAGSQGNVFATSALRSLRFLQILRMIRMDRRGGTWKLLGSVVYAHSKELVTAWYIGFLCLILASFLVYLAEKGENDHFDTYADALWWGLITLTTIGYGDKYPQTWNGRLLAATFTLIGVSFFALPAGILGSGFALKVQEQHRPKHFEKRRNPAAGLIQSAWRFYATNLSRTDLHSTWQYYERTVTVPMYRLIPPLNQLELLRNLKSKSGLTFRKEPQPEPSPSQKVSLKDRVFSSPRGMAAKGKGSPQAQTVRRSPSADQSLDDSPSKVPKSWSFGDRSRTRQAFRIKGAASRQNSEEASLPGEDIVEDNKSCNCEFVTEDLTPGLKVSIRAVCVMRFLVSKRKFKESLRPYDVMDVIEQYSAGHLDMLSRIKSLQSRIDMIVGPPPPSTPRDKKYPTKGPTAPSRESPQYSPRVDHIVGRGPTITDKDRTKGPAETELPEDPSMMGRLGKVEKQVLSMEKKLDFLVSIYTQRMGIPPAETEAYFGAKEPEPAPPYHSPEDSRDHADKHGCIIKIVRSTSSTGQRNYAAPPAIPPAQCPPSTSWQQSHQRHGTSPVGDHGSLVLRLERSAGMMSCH

Potassium voltage-gated channel subfamily KQT member 2 (Mus musculus), sequence (Q9Z351 whole entry): as above

| Compound | E/Eref [1] | EC50 [2] |
| --- | --- | --- |
| CCN1CCOc2ccc([C@H](C)NC(=O)/C=C/c3ccccc3F)cc21 | 2.1 | 200 nM |
| C[C@H](NC(=O)/C=C/c1ccccc1F)c1ccc2c(c1)N(C)CCO2 | 1.8 | 940 nM |
| C[C@H](NC(=O)/C=C/c1ccccc1F)c1ccc2c(c1)N(CC1CC1)CCO2 | 1.83 | 60 nM |
| CCOC(=O)Nc1ccc(NCc2ccc(F)cc2)cc1N [EZOGABINE] | 1.6 | 1300 nM |
| C[C@H](NC(=O)/C=C/c1ccccc1)c1cccc(N2CCOCC2)c1 | 1.4 | 3280 nM |
| C[C@H](NC(=O)/C=C/c1ccccc1F)c1ccc2c(c1)NCCO2 | 1.2 | 2000 nM |
